Legend:
[1] = Antioxidant activity assessed as DPPH scavenging activity at 5 to 20 uM after 15 mins by UV-visible spectrophotometry; format: physicochemical
[2] = target: Prostaglandin G/H synthase 1 (Homo sapiens) (UniProt P23219); test: Inhibition of COX1 (unknown origin) using arachidonic acid as substrate at […] after 10 mins by luminometry
[3] = target: Transcription factor p65 (Homo sapiens) (UniProt Q04206); test: Inhibition of LPS-induced NF-kappaB p65 activation in human THP1 cells preincubated at 10 uM for 15 mins before LPS treatment measured after 16 hrs; format: cell-based; conditions: THP-1
[4] = Antioxidant activity assessed as superoxide anion radical scavenging activity at 5 to 20 uM by xanthine/xanthine oxidase assay; format: physicochemical

Chain of Prostaglandin G/H synthase 1 (Homo sapiens) (P23219 whole entry): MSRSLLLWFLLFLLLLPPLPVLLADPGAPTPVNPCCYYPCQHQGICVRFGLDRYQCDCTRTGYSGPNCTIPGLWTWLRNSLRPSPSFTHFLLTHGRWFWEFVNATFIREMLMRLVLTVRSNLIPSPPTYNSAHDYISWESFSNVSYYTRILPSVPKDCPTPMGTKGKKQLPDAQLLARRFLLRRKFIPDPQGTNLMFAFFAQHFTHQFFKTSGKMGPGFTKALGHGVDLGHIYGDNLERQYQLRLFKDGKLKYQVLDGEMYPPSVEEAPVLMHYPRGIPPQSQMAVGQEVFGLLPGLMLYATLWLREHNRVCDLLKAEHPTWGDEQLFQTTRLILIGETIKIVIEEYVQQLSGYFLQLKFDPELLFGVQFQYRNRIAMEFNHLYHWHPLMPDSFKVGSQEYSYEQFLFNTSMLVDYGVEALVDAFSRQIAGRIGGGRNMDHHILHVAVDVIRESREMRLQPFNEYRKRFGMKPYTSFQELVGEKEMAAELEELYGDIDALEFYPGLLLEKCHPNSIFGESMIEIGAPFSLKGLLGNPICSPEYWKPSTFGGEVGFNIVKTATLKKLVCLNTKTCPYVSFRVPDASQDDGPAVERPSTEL
Chain of Transcription factor p65 (Homo sapiens) (Q04206 whole entry): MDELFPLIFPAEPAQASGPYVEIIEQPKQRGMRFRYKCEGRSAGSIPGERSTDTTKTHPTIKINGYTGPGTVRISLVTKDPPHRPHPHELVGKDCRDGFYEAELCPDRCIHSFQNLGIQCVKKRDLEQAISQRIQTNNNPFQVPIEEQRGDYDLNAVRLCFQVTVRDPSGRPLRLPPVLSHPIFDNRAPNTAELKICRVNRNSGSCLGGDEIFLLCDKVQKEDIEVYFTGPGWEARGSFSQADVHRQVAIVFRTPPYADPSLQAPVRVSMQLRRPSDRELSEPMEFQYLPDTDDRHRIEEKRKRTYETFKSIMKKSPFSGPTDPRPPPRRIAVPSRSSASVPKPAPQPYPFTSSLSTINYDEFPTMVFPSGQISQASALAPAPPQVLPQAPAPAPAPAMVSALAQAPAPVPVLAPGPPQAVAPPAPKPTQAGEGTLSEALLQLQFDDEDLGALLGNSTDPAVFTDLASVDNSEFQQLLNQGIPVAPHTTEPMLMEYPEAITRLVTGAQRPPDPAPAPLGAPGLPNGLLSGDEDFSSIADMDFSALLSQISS

Row | SMILES | Activity [1] | inhibition [2] | inhibition [3] | Activity [4]
1 | COc1cc(C(=O)O)ccc1O [VANILLIC ACID] | Active | – | – | –
2 | Oc1ccc(CCNCc2ccc(O)c(O)c2)cc1 | Active | 51% | 23% | 33%
3 | O=C(O)c1ccc(O)cc1 [PARABEN] | Active | – | – | –

— ChEMBL document CHEMBL3352537 (Bioorg Med Chem Lett, 2014)
